# Experimental data taken from patent US7998965B2, “Glutamate aggrecanase inhibitors” (Wyeth LLC, priority 2005, dated 2011).
# pIC50, pKi: −log10 of the molar value. Read-outs that look alike come from different tables or passages of the source.
# Columns and labels:
# [1] = target: T1, purified recombinant human Aggrecanase-1 (rAgg1) (Homo sapiens, UniProt O75173); assay: In vitro fluorescence screen for Aggrecanase-1 inhibitors; format: biochemical; set-up: Agg1 % at concentration: scale not given here; details: Table 3; for pIC50: read-out: Agg1 IC50; for pKi: read-out: Ki Agg1
# T1 sequence (O75173 213-837): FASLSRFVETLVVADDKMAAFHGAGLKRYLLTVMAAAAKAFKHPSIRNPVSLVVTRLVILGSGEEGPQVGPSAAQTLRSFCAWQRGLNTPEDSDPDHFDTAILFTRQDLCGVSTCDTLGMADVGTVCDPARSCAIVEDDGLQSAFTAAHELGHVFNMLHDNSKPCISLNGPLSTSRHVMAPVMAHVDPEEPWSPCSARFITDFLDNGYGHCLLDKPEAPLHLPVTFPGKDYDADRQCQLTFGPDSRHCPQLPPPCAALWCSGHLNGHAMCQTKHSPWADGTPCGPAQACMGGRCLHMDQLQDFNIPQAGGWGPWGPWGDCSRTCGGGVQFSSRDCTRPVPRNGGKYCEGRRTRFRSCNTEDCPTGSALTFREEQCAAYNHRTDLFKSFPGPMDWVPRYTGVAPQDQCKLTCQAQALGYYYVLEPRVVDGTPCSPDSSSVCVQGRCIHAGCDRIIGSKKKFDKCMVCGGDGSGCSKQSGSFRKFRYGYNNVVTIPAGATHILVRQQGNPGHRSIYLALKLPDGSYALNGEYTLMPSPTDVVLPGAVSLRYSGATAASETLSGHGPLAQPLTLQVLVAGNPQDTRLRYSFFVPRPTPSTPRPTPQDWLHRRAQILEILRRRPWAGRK
# [2] = target: T2, purified recombinant human Aggrecanase-2 (Ag2t-Phe628-Strep) (Homo sapiens, UniProt Q9UNA0); assay: In vitro fluorescence screen for Aggrecanase-2 inhibitors; format: biochemical; details: for pIC50: read-out: Agg 2 IC50; for pKi: read-out: Ki Agg2
# T2 construct: the form used is denoted as Ag2t-Phe628-Strep (MW=41,737)
# T2 sequence (Q9UNA0 262-628): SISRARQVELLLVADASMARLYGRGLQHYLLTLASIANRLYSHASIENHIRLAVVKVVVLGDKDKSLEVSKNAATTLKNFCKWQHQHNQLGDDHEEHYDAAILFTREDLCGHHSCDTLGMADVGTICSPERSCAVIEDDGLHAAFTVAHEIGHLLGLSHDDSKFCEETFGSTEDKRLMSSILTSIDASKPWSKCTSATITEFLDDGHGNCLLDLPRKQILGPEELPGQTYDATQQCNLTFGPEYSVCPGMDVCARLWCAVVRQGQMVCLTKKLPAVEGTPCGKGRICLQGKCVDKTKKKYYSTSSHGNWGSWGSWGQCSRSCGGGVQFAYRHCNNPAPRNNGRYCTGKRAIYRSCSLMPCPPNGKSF
# [3] = read-out: Agg 2 % at concentration
Compound,pIC50 [1],pIC50 ([2]; Table 3),also measured
"CC(C)(Cc1ccccc1)NC(=O)[C@H](CCC(=O)O)NC(=O)c1ccc(-c2ccccc2)nc1 [N-(1,1-dimethyl-2-phenylethyl)-N^2-[(6-phenylpyridin-3-yl)carbonyl]-L-α-glutamine]",7.00,6.15,
"CC(C)(Cc1ccc(Cl)cc1)NC(=O)[C@H](CCC(=O)O)NC(=O)c1ccc(-c2ccccc2)o1 [N-[2-(4-chlorophenyl)-1,1-dimethylethyl]-N^2-(5-phenyl-2-furoyl)-L-α-glutamine]",,,"Agg1 % at concentration ([1]; at 16700 (nM)): 60%; Agg 2 % at concentration ([2]; Table 3, at 50000 (nM)): 50%"
"CC(C)(Cc1ccc(Cl)cc1)NC(=O)[C@H](CCC(=O)O)NC(=O)c1cccc(-c2cccs2)c1 [N-[2-(4-chlorophenyl)-1,1-dimethylethyl]-N^2-[3-(2-thienyl)benzoyl]-L-α-glutamine]",,,"Agg1 % at concentration ([1]; at 25000 (nM)): 16%; Agg 2 % at concentration ([2]; Table 3, at 25000 (nM)): 10%"
"CC(C)(Cc1ccc(Cl)cc1)NC(=O)[C@H](CCC(=O)O)NC(=O)c1ccc(-c2nccs2)cc1 [N-[2-(4-chlorophenyl)-1,1-dimethylethyl]-N^2-[4-(1,3-thiazol-2-yl)benzoyl]-L-α-glutamine]",5.92,,"inhibition at 2.5 µM [2, 3]: 50%"
"CC(C)(Cc1ccc(Cl)cc1)NC(=O)[C@H](CCC(=O)O)NC(=O)c1ccc(-c2ccc3c(c2)OCC3)cc1 [N-[2-(4-chlorophenyl)-1,1-dimethylethyl]-N^2-[4-(2,3-dihydro-1-benzofuran-6-yl)benzoyl]-L-α-glutamine]",,6.57 to 7.05,Agg1 % at concentration ([1]; at 200 (nM)): 65%
"CC(C)(Cc1ccc(Cl)cc1)NC(=O)[C@H](CCC(=O)O)NC(=O)c1sccc1-c1ccccc1 [N-[2-(4-chlorophenyl)-1,1-dimethylethyl]-N^2-[(3-phenyl-2-thienyl)carbonyl]-L-α-glutamine]",< 4.60,< 4.00,
"CC(C)(Cc1ccc(Cl)cc1)NC(=O)[C@H](CCC(=O)O)NC(=O)c1ccc(-c2ccc(Cl)s2)nc1 [N-[2-(4-chlorophenyl)-1,1-dimethylethyl]-N^2-{[6-(5-chloro-2-thienyl)pyridin-3-yl]carbonyl}-L-α-glutamine]",7.15 to 7.70,6.52 to 7.00,pKi [1]: 7.39; pKi ([2]; Table 3): 6.28
"COc1cccc(-c2ccc(C(=O)N[C@@H](CCC(=O)O)C(=O)NC(C)(C)Cc3ccc(F)cc3)cn2)c1 [N-[2-(4-fluorophenyl)-1,1-dimethylethyl]-N^2-{[6-(3-methoxyphenyl)pyridin-3-yl]carbonyl}-L-α-glutamine]",6.85,5.28,
"CC(C)(Cc1ccc(F)cc1)NC(=O)[C@H](CCC(=O)O)NC(=O)c1ccc(Br)cc1 [N^2-(4-bromobenzoyl)-N-[2-(4-fluorophenyl)-1,1-dimethylethyl]-L-α-glutamine]",5.98,5.13,
"CC(C)(Cc1ccccc1)NC(=O)[C@H](CCC(=O)O)NC(=O)c1cccc(-c2ccc(Cl)s2)c1 [N^2-[3-(5-chloro-2-thienyl)benzoyl]-N-(1,1-dimethyl-2-phenylethyl)-L-α-glutamine]",< 6.05,< 5.08,
"CC(C)(Cc1ccccc1)NC(=O)[C@H](CCC(=O)O)NC(=O)c1ccc(-c2ccc3c(c2)OCC3)cc1 [N^2-[4-(2,3-dihydro-1-benzofuran-6-yl)benzoyl]-N-(1,1-dimethyl-2-phenylethyl)-L-α-glutamine]",7.15,6.10 to 6.57,
"CC(=O)c1ccc(-c2ccc(C(=O)N[C@@H](CCC(=O)O)C(=O)NC(C)(C)Cc3ccccc3)cc2)s1 [N^2-[4-(5-acetyl-2-thienyl)benzoyl]-N-(1,1-dimethyl-2-phenylethyl)-L-α-glutamine]",6.05 to 6.52,,"inhibition at 2.5 µM ([2]; Table 3, at 2500 (nM), read-out: Agg 2 % at concentration): 5%"
"CC(=O)c1ccc(-c2ccc(C(=O)N[C@@H](CCC(=O)O)C(=O)NC(C)(C)Cc3ccc(Cl)cc3)cc2)s1 [N^2-[4-(5-acetyl-2-thienyl)benzoyl]-N-[2-(4-chlorophenyl)-1,1-dimethylethyl]-L-α-glutamine]",5.62,,"inhibition at 7.4 µM [2, 3]: 50%"
"CC(C)(Cc1ccc(F)cc1)NC(=O)[C@@H](CCC(=O)O)NC(=O)c1ccc(-c2ccc(Cl)s2)cc1 [N^2-[4-(5-chloro-2-thienyl)benzoyl]-N-[2-(4-fluorophenyl)-1,1-dimethylethyl]-D-α-glutamine]",< 6.40,< 5.57,

# More lines, main results first:
pIC50 [1],pIC50 ([2]; Table 3),Compound,also measured
> 7.52,6.70 to 7.15,"COc1cccc(-c2ccc(C(=O)N[C@@H](CCC(=O)O)C(=O)NC(C)(C)Cc3ccccc3)s2)c1 [N-(1,1-dimethyl-2-phenylethyl)-N^2-{[5-(3-methoxyphenyl)-2-thienyl]carbonyl}-L-α-glutamine]",pKi [1]: > 8.52; pKi ([2]; Table 3): 6.82
> 7.52,6.70 to 7.15,"CC(C)(Cc1ccc(Cl)cc1)NC(=O)[C@H](CCC(=O)O)NC(=O)c1ccc(-c2ccc(Cl)s2)cc1 [N-[2-(4-chlorophenyl)-1,1-dimethylethyl]-N^2-[4-(5-chloro-2-thienyl)benzoyl]-L-α-glutamine]",pKi [1]: 8.27; pKi ([2]; Table 3): 7.29
> 7.52,6.05,"CC(C)(Cc1ccc(Cl)cc1)NC(=O)[C@H](CCC(=O)O)NC(=O)c1ccc(-c2ccc(C=O)s2)cc1 [N-[2-(4-chlorophenyl)-1,1-dimethylethyl]-N^2-[4-(5-formyl-2-thienyl)benzoyl]-L-α-glutamine]",
7.40,5.47,"CC(C)(Cc1ccc(Cl)cc1)NC(=O)[C@H](CCC(=O)O)NC(=O)c1ccc(-c2ccncc2)s1 [N-[2-(4-chlorophenyl)-1,1-dimethylethyl]-N^2-[(5-pyridin-4-yl-2-thienyl)carbonyl]-L-α-glutamine]",
> 7.52,< 6.52,"CC(C)(Cc1ccc(Cl)cc1)NC(=O)[C@H](CCC(=O)O)NC(=O)c1ccc(-c2ccc(Cl)cc2)s1 [N-[2-(4-chlorophenyl)-1,1-dimethylethyl]-N^2-{[5-(4-chlorophenyl)-2-thienyl]carbonyl}-L-α-glutamine]",
> 7.52,7.00 to 7.52,"CC(C)(Cc1ccc(Cl)cc1)NC(=O)[C@H](CCC(=O)O)NC(=O)c1ccc(-c2ccc(F)cc2)s1 [N-[2-(4-chlorophenyl)-1,1-dimethylethyl]-N^2-{[5-(4-fluorophenyl)-2-thienyl]carbonyl}-L-α-glutamine]",pKi [1]: > 8.52; pKi ([2]; Table 3): 7.06
> 7.52,6.70 to 7.22,"CC(C)(Cc1ccc(F)cc1)NC(=O)[C@H](CCC(=O)O)NC(=O)c1ccc(-c2ccccc2)s1 [N-[2-(4-fluorophenyl)-1,1-dimethylethyl]-N^2-[(5-phenyl-2-thienyl)carbonyl]-L-α-glutamine]",pKi [1]: 8.42; pKi ([2]; Table 3): 7.10
7.30,6.00,"CC(C)(Cc1ccc(F)cc1)NC(=O)[C@H](CCC(=O)O)NC(=O)c1ccc(-c2ccccc2)nc1 [N-[2-(4-fluorophenyl)-1,1-dimethylethyl]-N^2-[(6-phenylpyridin-3-yl)carbonyl]-L-α-glutamine]",
> 7.52,6.52 to 7.00,"COc1cccc(-c2ccc(C(=O)N[C@@H](CCC(=O)O)C(=O)NC(C)(C)Cc3ccc(F)cc3)s2)c1 [N-[2-(4-fluorophenyl)-1,1-dimethylethyl]-N^2-{[5-(3-methoxyphenyl)-2-thienyl]carbonyl}-L-α-glutamine]",pKi [1]: 8.21; pKi ([2]; Table 3): 6.84
> 7.52,6.22 to 6.70,"CC(C)(Cc1ccccc1)NC(=O)[C@H](CCC(=O)O)NC(=O)c1ccc(-c2cccs2)s1 [N^2-(2,2′-bithien-5-ylcarbonyl)-N-(1,1-dimethyl-2-phenylethyl)-L-α-glutamine]",
> 7.52,5.74 to 6.22,"CC(C)(Cc1ccc(Cl)cc1)NC(=O)[C@H](CCC(=O)O)NC(=O)c1ccc(-c2cccs2)s1 [N^2-(2,2′-bithien-5-ylcarbonyl)-N-[2-(4-chlorophenyl)-1,1-dimethylethyl]-L-α-glutamine]",pKi [1]: 7.07; pKi ([2]; Table 3): 5.94
> 7.52,7.00 to 7.52,"CC(C)(Cc1ccc(Cl)cc1)NC(=O)[C@H](CCC(=O)O)NC(=O)c1ccc(-c2ccc(Br)s2)cc1 [N^2-[4-(5-bromo-2-thienyl)benzoyl]-N-[2-(4-chlorophenyl)-1,1-dimethylethyl]-L-α-glutamine]",pKi [1]: 8.08; pKi ([2]; Table 3): 7.16
> 7.52,6.70,"CC(C)(Cc1ccc(F)cc1)NC(=O)[C@H](CCC(=O)O)NC(=O)c1ccc(-c2ccccc2)cc1F [N^2-[(3-fluorobiphenyl-4-yl)carbonyl]-N-[2-(4-fluorophenyl)-1,1-dimethylethyl]-L-α-glutamine]",
